Conditions: Ring tensiometer

CO [methanol]
Conditions | surface tension liquid-gas [mN/m]
279.11 K | 23.87
282.59 K | 23.63
288.3 K | 23.14
293.37 K | 22.73
296.97 K | 22.43
301.54 K | 21.99
307.31 K | 21.43
311.76 K | 21
317.66 K | 20.43
322.9 K | 19.83
326.56 K | 19.42
330.01 K | 19.09
333.81 K | 18.63
